Assay results as given in publication PMC5218480 (PLoS ONE, 2017).

System: MV-4-11 cells
Assay: Gene expression microarray analysis (Affymetrix PrimeView) and GSEA
Type: cell-based, human
Set-up: RFU PODN (11730768_x_at) / Fold change /veh PODN (11730768_x_at) / RFU LINC00158 (11744669_a_at) / Fold change /veh LINC00158 (11744669_a_at) / RFU DUSP10 (11751237_a_at) / Fold change /veh DUSP10 (11751237_a_at) / RFU ID3 (11757404_x_at) / Fold change /veh ID3 (11757404_x_at) / RFU PLEKHG5 (11737974_s_at) / Fold change /veh PLEKHG5 (11737974_s_at) / RFU LRRC4B (11730491_at) / Fold change /veh LRRC4B (11730491_at) / RFU GIMAP4 (11747438_a_at) / Fold change /veh GIMAP4 (11747438_a_at) / RFU KRT8 (11758183_x_at) / Fold change /veh KRT8 (11758183_x_at) / RFU CNN1 (11734310_a_at) / Fold change /veh CNN1 (11734310_a_at) / RFU VPS37D (11726825_at) / Fold change /veh VPS37D (11726825_at) / RFU C10orf10 (11716522_x_at) / Fold change /veh C10orf10 (11716522_x_at) / RFU KIR2DL2 /// KIR2DL4 /// KIR2DL5A /// KIR2DL5B /// KIR2DS1 /// KIR2DS2 /// KIR2DS3 /// KIR2DS4 /// KIR3DL3 /// KIR3DL3 /// KIR3DS1 (11738374_at) / Fold change /veh KIR2DL2 /// KIR2DL4 /// KIR2DL5A /// KIR2DL5B /// KIR2DS1 /// KIR2DS2 /// KIR2DS3 /// KIR2DS4 /// KIR3DL3 /// KIR3DL3 /// KIR3DS1 (11738374_at) / RFU C1QL1 (11718748_at) / Fold change /veh C1QL1 (11718748_at) / RFU TMPRSS4 (11747572_a_at) / Fold change /veh TMPRSS4 (11747572_a_at) / RFU HAMP (11756126_x_at) / Fold change /veh HAMP (11756126_x_at) / RFU RNFT2 (11725882_a_at) / Fold change /veh RNFT2 (11725882_a_at) / RFU NR4A2 (11747474_a_at) / Fold change /veh NR4A2 (11747474_a_at) / RFU ABCC12 (11746883_a_at) / Fold change /veh ABCC12 (11746883_a_at) / RFU TMEM136 (11760407_x_at) / Fold change /veh TMEM136 (11760407_x_at) / RFU CLDN22 /// WWC2 (11732394_at) / Fold change /veh CLDN22 /// WWC2 (11732394_at) / RFU HLA-DPB1 (11760878_x_at) / Fold change /veh HLA-DPB1 (11760878_x_at) / RFU SPINT1 (11716480_a_at) / Fold change /veh SPINT1 (11716480_a_at) / RFU GAP43 (11754022_s_at) / Fold change /veh GAP43 (11754022_s_at) / RFU A4GNT (11735810_at) / Fold change /veh A4GNT (11735810_at) / RFU PRB3 (11715151_x_at) / Fold change /veh PRB3 (11715151_x_at) / RFU TUBB4B (11761932_at) / Fold change /veh TUBB4B (11761932_at) / RFU CAPN14 (11732068_a_at) / Fold change /veh CAPN14 (11732068_a_at) / RFU TMCC2 (11721928_a_at) / Fold change /veh TMCC2 (11721928_a_at) / RFU IRGQ (11745062_a_at) / Fold change /veh IRGQ (11745062_a_at) / RFU FAM174B (11720279_a_at) / Fold change /veh FAM174B (11720279_a_at) / RFU TMPRSS4 (11748680_a_at) / Fold change /veh TMPRSS4 (11748680_a_at) / RFU FAM212B (11763350_a_at) / Fold change /veh FAM212B (11763350_a_at) / RFU PLEKHG5 (11743358_a_at) / Fold change /veh PLEKHG5 (11743358_a_at) / RFU ZSCAN30 (11745921_a_at) / Fold change /veh ZSCAN30 (11745921_a_at) / RFU CMKLR1 (11741424_a_at) / Fold change /veh CMKLR1 (11741424_a_at) / RFU LOC101060620 /// MAPK8IP1 (11723275_at) / Fold change /veh LOC101060620 /// MAPK8IP1 (11723275_at) / RFU SPTSSB (11747773_x_at) / Fold change /veh SPTSSB (11747773_x_at) / RFU PRSS12 (11739890_at) / Fold change /veh PRSS12 (11739890_at) / RFU BIN1 (11741810_x_at) / Fold change /veh BIN1 (11741810_x_at) / RFU WNT11 (11732464_a_at) / Fold change /veh WNT11 (11732464_a_at) / RFU C10orf10 (11716521_a_at) / Fold change /veh C10orf10 (11716521_a_at) / RFU C5orf56 (11738089_at) / Fold change /veh C5orf56 (11738089_at) / RFU CYB561 (11721691_x_at) / Fold change /veh CYB561 (11721691_x_at) / RFU ANKRD19P (11752326_a_at) / Fold change /veh ANKRD19P (11752326_a_at) / RFU OR2T12 /// OR2T33 /// OR2T8 (11738714_s_at) / Fold change /veh OR2T12 /// OR2T33 /// OR2T8 (11738714_s_at) / RFU VCAN (11748164_a_at) / Fold change /veh VCAN (11748164_a_at) / RFU JSRP1 (11732532_at) / Fold change /veh JSRP1 (11732532_at) / RFU KRTAP10-11 (11738290_x_at) / Fold change /veh KRTAP10-11 (11738290_x_at) / RFU MYO3A (11730013_a_at) / Fold change /veh MYO3A (11730013_a_at) / RFU EBF3 (11725865_a_at) / Fold change /veh EBF3 (11725865_a_at) / RFU CAMK2N1 (11719241_x_at) / Fold change /veh CAMK2N1 (11719241_x_at) / RFU C5orf56 (11738088_a_at) / Fold change /veh C5orf56 (11738088_a_at) / RFU OLFML3 (11715873_a_at) / Fold change /veh OLFML3 (11715873_a_at) / RFU LOC100653217 /// NTM (11731650_a_at) / Fold change /veh LOC100653217 /// NTM (11731650_a_at) / RFU MAPK11 (11762145_a_at) / Fold change /veh MAPK11 (11762145_a_at) / RFU FIZ1 (11724087_x_at) / Fold change /veh FIZ1 (11724087_x_at) / RFU OASL (11726364_x_at) / Fold change /veh OASL (11726364_x_at) / RFU SOX15 (11748057_x_at) / Fold change /veh SOX15 (11748057_x_at) / RFU CD79A (11719716_a_at) / Fold change /veh CD79A (11719716_a_at) / RFU HIST1H1D (11736915_at) / Fold change /veh HIST1H1D (11736915_at) / RFU CASKIN2 (11723855_a_at) / Fold change /veh CASKIN2 (11723855_a_at) / RFU LOC730098 (11760151_x_at) / Fold change /veh LOC730098 (11760151_x_at) / RFU OR4N2 (11742367_at) / Fold change /veh OR4N2 (11742367_at) / RFU PRRT2 (11749266_a_at) / Fold change /veh PRRT2 (11749266_a_at) / RFU SNX32 (11753110_a_at) / Fold change /veh SNX32 (11753110_a_at) / RFU CDHR5 (11726645_a_at) / Fold change /veh CDHR5 (11726645_a_at) / RFU RCAN1 (11760418_a_at) / Fold change /veh RCAN1 (11760418_a_at) / RFU FAM167A (11723789_a_at) / Fold change /veh FAM167A (11723789_a_at) / RFU FAM26E (11764081_at) / Fold change /veh FAM26E (11764081_at) / RFU ISYNA1 (11749810_s_at) / Fold change /veh ISYNA1 (11749810_s_at) / RFU ACY1 (11761880_at) / Fold change /veh ACY1 (11761880_at) / RFU 11764098_at / Fold change /veh 11764098_at / RFU SAMD14 (11745864_x_at) / Fold change /veh SAMD14 (11745864_x_at) / RFU NPB (11741838_a_at) / Fold change /veh NPB (11741838_a_at) / RFU TMPRSS6 (11731388_a_at) / Fold change /veh TMPRSS6 (11731388_a_at) / RFU KRTAP10-2 (11738614_at) / Fold change /veh KRTAP10-2 (11738614_at) / RFU ARHGAP8 /// PRR5-ARHGAP8 (11727945_x_at) / Fold change /veh ARHGAP8 /// PRR5-ARHGAP8 (11727945_x_at) / RFU KRTAP5-7 /// NADSYN1 (11734609_at) / Fold change /veh KRTAP5-7 /// NADSYN1 (11734609_at) / RFU RASL12 (11751679_a_at) / Fold change /veh RASL12 (11751679_a_at) / RFU CDKN2B (11736163_a_at) / Fold change /veh CDKN2B (11736163_a_at) / RFU PRF1 (11729649_at) / Fold change /veh PRF1 (11729649_at) / RFU, ZNF638 /// ZNF638-IT1 / Fold change vs veh, ZNF638 /// ZNF638-IT1 / RFU, PANK3 / Fold change vs veh, PANK3 / RFU, SH3YL1 / Fold change vs veh, SH3YL1 / RFU, ZEB2 / Fold change vs veh, ZEB2 / RFU, NRIP1 / Fold change vs veh, NRIP1 / RFU, PTTG1IP / Fold change vs veh, PTTG1IP / RFU, CAPN2 / Fold change vs veh, CAPN2 / RFU, MED14 / Fold change vs veh, MED14 / RFU, SNORA58 / Fold change vs veh, SNORA58 / RFU, C1orf63 / Fold change vs veh, C1orf63 / RFU, LRRFIP1 / Fold change vs veh, LRRFIP1 / RFU, NDUFAF7 / Fold change vs veh, NDUFAF7 / RFU, SLC12A2 / Fold change vs veh, SLC12A2 / RFU, IBTK / Fold change vs veh, IBTK / RFU, ESF1 / Fold change vs veh, ESF1 / Fold change vs veh, TMEM50B / RFU, TAOK1 / Fold change vs veh, TAOK1 / RFU, ACBD3 / Fold change vs veh, ACBD3 / RFU, TMA16 / Fold change vs veh, TMA16 / RFU, RWDD3 / Fold change vs veh, RWDD3 / RFU, BCAT1 / Fold change vs veh, BCAT1 / RFU, EDEM3 / Fold change vs veh, EDEM3 / RFU, TMEM33 / Fold change vs veh, TMEM33 / RFU, WDR75 / Fold change vs veh, WDR75 / RFU, AHCTF1 / Fold change vs veh, AHCTF1 / RFU, TFRC / Fold change vs veh, TFRC / RFU, ZDHHC17 / Fold change vs veh, ZDHHC17 / RFU, NOM1 / Fold change vs veh, NOM1 / RFU, ARL8B / Fold change vs veh, ARL8B / RFU, ZBTB11 / Fold change vs veh, ZBTB11 / RFU, TAMM41 / Fold change vs veh, TAMM41 / RFU, KIAA1704 /// LOC100996395 / Fold change vs veh, KIAA1704 /// LOC100996395 / RFU, ING1 / Fold change vs veh, ING1 / RFU, TRMT61B / Fold change vs veh, TRMT61B / RFU, FUBP3 / Fold change vs veh, FUBP3 / RFU, TP53 / Fold change vs veh, TP53 / RFU, TNKS2 / Fold change vs veh, TNKS2 / RFU, ZFP14 / Fold change vs veh, ZFP14 / RFU, ACTR2 / Fold change vs veh, ACTR2 / RFU, PPP3R1 / Fold change vs veh, PPP3R1 / RFU, PIK3R1 / Fold change vs veh, PIK3R1 / RFU, HNRNPA1 / Fold change vs veh, HNRNPA1 / RFU, RNF170 / Fold change vs veh, RNF170 / RFU, ZNF28 / Fold change vs veh, ZNF28 / RFU, RNGTT / Fold change vs veh, RNGTT / RFU, OGT / Fold change vs veh, OGT / RFU, BRD1 / Fold change vs veh, BRD1 / RFU, MARS / Fold change vs veh, MARS / RFU, ZNF655 / Fold change vs veh, ZNF655 / RFU, FAHD1 / Fold change vs veh, FAHD1 / RFU, BDP1 / Fold change vs veh, BDP1 / RFU, LRRCC1 / Fold change vs veh, LRRCC1 / RFU, ARID1A / Fold change vs veh, ARID1A / RFU, ZNF146 / Fold change vs veh, ZNF146 / RFU, ZNF330 / Fold change vs veh, ZNF330 / RFU, GPN3 / Fold change vs veh, GPN3 / RFU, C9orf123 / Fold change vs veh, C9orf123 / RFU, N4BP2L2 / Fold change vs veh, N4BP2L2 / RFU, ARFIP1 / Fold change vs veh, ARFIP1 / RFU, FAM179B / Fold change vs veh, FAM179B / RFU, BCL10 / Fold change vs veh, BCL10 / RFU, UHRF1BP1L / Fold change vs veh, UHRF1BP1L / RFU, BET1 / Fold change vs veh, BET1 / RFU, CNOT2 / Fold change vs veh, CNOT2 / RFU, ZNF268 / Fold change vs veh, ZNF268 / Fold change vs veh, ZNF507 / RFU, DGCR2 / Fold change vs veh, DGCR2 / RFU, WDSUB1 / Fold change vs veh, WDSUB1 / Fold change vs veh, HSP90B1 /// MIR3652 / RFU, ADSS / Fold change vs veh, ADSS / RFU, GK / Fold change vs veh, GK / RFU, ZNF148 / Fold change vs veh, ZNF148 / RFU, TAF9 / Fold change vs veh, TAF9 / RFU, SLC1A5 / Fold change vs veh, SLC1A5 / RFU, SLMO2 / Fold change vs veh, SLMO2 / RFU, ABCC4 / Fold change vs veh, ABCC4 / RFU, LOC101060439 /// RAP1B / Fold change vs veh, LOC101060439 /// RAP1B / RFU, RFX7 / Fold change vs veh, RFX7 / RFU, GTPBP10 / Fold change vs veh, GTPBP10 / RFU, CNEP1R1 / Fold change vs veh, CNEP1R1 / RFU, BIVM-ERCC5 /// ERCC5 / Fold change vs veh, BIVM-ERCC5 /// ERCC5 / RFU, ILF3 / Fold change vs veh, ILF3 / RFU 11762660_at / Fold change /veh 11762660_at / RFU VCAN (11757783_s_at) / Fold change /veh VCAN (11757783_s_at) / RFU DDX43 (11728927_at) / Fold change /veh DDX43 (11728927_at) / RFU KRT8 (11758188_x_at) / Fold change /veh KRT8 (11758188_x_at) / RFU NKD1 (11759106_at) / Fold change /veh NKD1 (11759106_at) / RFU SRD5A1 (11742802_a_at) / Fold change /veh SRD5A1 (11742802_a_at) / RFU TPSAB1 /// TPSB2 (11721975_s_at) / Fold change /veh TPSAB1 /// TPSB2 (11721975_s_at) / RFU GSTM3 (11746129_a_at) / Fold change /veh GSTM3 (11746129_a_at) / RFU IL23R (11737362_x_at) / Fold change /veh IL23R (11737362_x_at) / RFU TMEM51 (11727254_a_at) / Fold change /veh TMEM51 (11727254_a_at) / RFU PIWIL2 (11732686_x_at) / Fold change /veh PIWIL2 (11732686_x_at) / RFU ORM1 (11744905_x_at) / Fold change /veh ORM1 (11744905_x_at) / RFU CCDC152 (11743942_at) / Fold change /veh CCDC152 (11743942_at) / RFU ECM1 (11717891_a_at) / Fold change /veh ECM1 (11717891_a_at) / RFU IL23R (11748794_a_at) / Fold change /veh IL23R (11748794_a_at) / RFU TNFAIP8L3 (11732012_x_at) / Fold change /veh TNFAIP8L3 (11732012_x_at) / RFU MBOAT4 (11741988_at) / Fold change /veh MBOAT4 (11741988_at) / RFU 11764193_at / Fold change /veh 11764193_at / RFU TMEM53 (11763286_at) / Fold change /veh TMEM53 (11763286_at) / RFU MAGEB2 (11727129_at) / Fold change /veh MAGEB2 (11727129_at) / RFU TMEM200A (11744735_a_at) / Fold change /veh TMEM200A (11744735_a_at) / RFU CCDC152 (11751479_a_at) / Fold change /veh CCDC152 (11751479_a_at) / RFU FAM211A (11726209_a_at) / Fold change /veh FAM211A (11726209_a_at) / RFU RGS16 (11746705_a_at) / Fold change /veh RGS16 (11746705_a_at) / RFU VCAN (11755009_s_at) / Fold change /veh VCAN (11755009_s_at) / RFU RHOB (11743442_s_at) / Fold change /veh RHOB (11743442_s_at) / RFU RGS16 (11720943_a_at) / Fold change /veh RGS16 (11720943_a_at) / RFU RGS16 (11720944_at) / Fold change /veh RGS16 (11720944_at) / RFU, VPS4B / Fold change vs veh, VPS4B / RFU, CREB1 / Fold change vs veh, CREB1 / RFU, DNAJC13 / Fold change vs veh, DNAJC13 / RFU, GNAQ / Fold change vs veh, GNAQ / RFU, CDK5R1 / Fold change vs veh, CDK5R1 / RFU, ZRANB3 / Fold change vs veh, ZRANB3 / RFU, CUL4A / Fold change vs veh, CUL4A / RFU, CCNY / Fold change vs veh, CCNY / RFU, UFL1 / Fold change vs veh, UFL1 / RFU, COG3 / Fold change vs veh, COG3 / RFU, DIAPH2 / Fold change vs veh, DIAPH2 / RFU, SKA2 / Fold change vs veh, SKA2 / RFU, AFF3 / Fold change vs veh, AFF3 / RFU, LMF1 / Fold change vs veh, LMF1 / RFU, IPO11 / Fold change vs veh, IPO11 / RFU, DFFB / Fold change vs veh, DFFB / RFU, FOXP1 / Fold change vs veh, FOXP1 / RFU, CARD8 / Fold change vs veh, CARD8 / RFU, STRN3 / Fold change vs veh, STRN3 / RFU, ADK / Fold change vs veh, ADK / RFU, RASSF2 / Fold change vs veh, RASSF2 / RFU, WIPF1 / Fold change vs veh, WIPF1 / RFU, LARP1B / Fold change vs veh, LARP1B / RFU, RASA1 / Fold change vs veh, RASA1 / RFU, RB1 / Fold change vs veh, RB1 / RFU, PPFIA1 / Fold change vs veh, PPFIA1 / RFU, MAT2A / Fold change vs veh, MAT2A / RFU, CCT5 / Fold change vs veh, CCT5 / RFU, WDR92 / Fold change vs veh, WDR92 / RFU, CUX1 / Fold change vs veh, CUX1 / RFU, TTC7A / Fold change vs veh, TTC7A / RFU, TMEM135 / Fold change vs veh, TMEM135 / RFU, DEPTOR / Fold change vs veh, DEPTOR / RFU, CPM / Fold change vs veh, CPM / RFU, DNAJB6 / Fold change vs veh, DNAJB6 / RFU, CACNA2D3 / Fold change vs veh, CACNA2D3 / RFU, DTX4 / Fold change vs veh, DTX4 / RFU, TFCP2 / Fold change vs veh, TFCP2 / RFU, GMCL1 /// GMCL1P1 / Fold change vs veh, GMCL1 /// GMCL1P1 / RFU, AEBP2 / Fold change vs veh, AEBP2 / RFU, SNHG1 /// SNORD22 /// SNORD25 /// SNORD26 /// SNORD27 /// SNORD28 /// SNORD29 /// SNORD31 / Fold change vs veh, SNHG1 /// SNORD22 /// SNORD25 /// SNORD26 /// SNORD27 /// SNORD28 /// SNORD29 /// SNORD31 / Fold change (Aza/veh), C12orf56 (ProbeSet 11735607_a_at) / Fold change (ACY-1035/veh), C12orf56 (ProbeSet 11735607_a_at) / Fold change (Aza/veh), FGFR1OP (ProbeSet 11751329_s_at) / Fold change (ACY-1035/veh), FGFR1OP (ProbeSet 11751329_s_at) / Fold change (Aza/veh), VPS36 (ProbeSet 11739960_a_at) / Fold change (ACY-1035/veh), VPS36 (ProbeSet 11739960_a_at) / RFU SYPL1 (11715823_x_at) / Fold change /veh SYPL1 (11715823_x_at) / RFU IGFBP7 (11715501_s_at) / Fold change /veh IGFBP7 (11715501_s_at) / RFU REEP3 (11722064_at) / Fold change /veh REEP3 (11722064_at) / RFU IGLL1 (11728026_x_at) / Fold change /veh IGLL1 (11728026_x_at): dose or concentration left out as unconfirmed
Conditions: ProbeSet 11758397_s_at; LIST B

## Nc1ccc(-c2cccs2)cc1NC(=O)c1ccc2c(c1)cc(C1CC1)n2CCN1CCOCC1 [ACY-1035]
  RFU, RNF170: 143.47 RFU
